Results on one compound are retold here after patent US20240181049A1, “HARNESSING THE POWER OF MICROBIOTA AND METABOLITES FOR THE TREATMENT OF CANCER” (UTI LIMITED PARTNERSHIP, priority 2019, published 2024).

For one test, the system named is MC38-OVA cells. The test can be described thus: T cell-mediated killing of inosine-pretreated MC38-OVA cells. Format: cell-based. Conditions: pretreatment of tumor cells prior to co-culture with activated tumor-specific T cells. On the procedure:
(§1) FIG. 17A-17B. […] (a) MC38 tumor cells were treated with the indicated doses of inosine in vitro for 72 hours. Cell death and survival was assessed through flow cytometry. (b) MC38 tumor cells expressing full length ovalbumin (MC38-OVA) were treated with the indicated doses of inosine in vitro for 72 hours. In parallel, OVA-specific naïve CD4 and CD8 T cells from spleens of OT-II and OT-I mice, respectively, were activated with anti-CD3/anti-CD28 beads and rmIL-2 (20 IU/ml) for 72 hours. Inosine was then washed away from conditioned MC38-OVA cells and fresh medium together with activated T cells were added (100,000 MC38-OVA cells+25,000 CD4 cells+25,000 CD8 cells). 72 hours later, cell death and survival of MC38-OVA cells was assessed through flow cytometry. Grey and black dash-dotted lines indicate MC38-OVA cell viability and death when co-cultured with naïve OVA-specific CD4 and CD8 T cells. Data are mean±SEM and pooled from two individual experiments. n=6 biological replicates/condition. #, & P<0.05, **, P<0.01; (**=0.0001 vs 10 mM, #0.001 vs 10 mM and & 1 vs 10 mM)

The subject of the next test is MC38. The test can be described thus: MC38 tumors in gnotobiotic Oligo-MM12 mice, inosine + anti-CTLA-4. Format: in vivo. On the procedure:
FIG. 35A-35H. Inosine and live B. pseudolongum improve anti-CTLA-4 therapy efficacy in moderately diverse and complex microbiomes. A) Schematic overview of experimental setup to assess the effect of inosine on anti-tumor immunity in gnotobiotic mice (Oligo-MM12) stably colonized with 12 bacterial species. Upon palpable tumors, Oligo-MM12 colonized mice were treated with 100 μg anti-CTLA-4 i.p. or Isotype antibody (5 times every 72 hours). In addition, inosine (300 mg/KG/BW) or PBS was given daily orally through gavage. (B) Pictures of tumors and (C) tumor weight are shown at day 20. scale bars: 1 cm. (D) Quantification of intratumoral IFN-γ+ cells amongst CD8+ or CD4+ T cells are shown. (E) Schematic overview of experimental setup to assess the effect of inosine and B. pseudolongum on anti-tumor immunity in SPF mice. Following MC38 injection some mice received antibiotics (ABX), specifically Ampicillin 1 mg/ml, Colistin 1 mg/ml and Streptomycin 5 mg/ml for 7 days in the drinking water. Upon palpable tumors, antibiotics were removed and 100 μg anti-CTLA-4 (5 times every 72 hours) started. Mice concomitantly received either PBS, inosine (300 mg/KG/BW daily), B. pseudolongum or heat inactivated (H.i.) B. pseudolongum orally through gavage (5 times every 72 hours). (F) Pictures of tumors and (G) tumor weight are shown at day 20. scale bars: 1 cm. (H) Quantification of intratumoral IFN-γ+ cells amongst CD8+ or CD4+ cells are shown. Data are mean+/−SEM and (A-H) n=7 mice/group. P<0.05; **, P<0.01, ***, P<0.001.

Test [1] has as its system MC38 tumor cells. Description: MC38 tumors in GF Rag1-deficient mice receiving WT or A2AR-deficient T cells, inosine + anti-CTLA-4 + CpG. Conditions: WT vs A2AR-deficient T cells. The format is in vivo. As for the experimental part: FIG. 5A-5L: Inosine promotes Th1 activation and anti-tumor immunity. (a) Schematic overview of experimental setup to assess the effect of inosine on Th1 activation in vivo. (b, c) Representative dot plots and quantification (left and right panel respectively) of T-bet^+IFN-γ^+CD3ε^+ (b) CD8^+ or (c) CD4^+ T cells in the MLN. (d) Schematic overview of experimental setup to assess the effect of inosine on anti-tumor immunity. Upon palpable tumors, mice were treated with 100 μg anti-CTLA-4 i.p. (5 times every 72 hours) and in some groups 20 μg CpG i.p. (5 times every 72 hours). In addition, inosine (300 mg/KG/BW) or PBS was given daily orally (O), through gavage or systemically (S) through i.p. injection. (e) Tumor weight and quantification of IFN-γ^+ cells amongst (f) CD4^+ or (g) CD8^+ cells are shown. (h). Schematic overview to assess the requirement of A2AR signaling for inosine-induced anti-tumor immunity. 1×10^6 MC38 cells (s.c.) and WT or A2AR-deficient 1×10^7 T cells (i.v. 6×10^6 CD4^+ and 4×10^6 CD8^+ cells) were injected. Upon palpable tumors, mice were treated with 100 μg anti-CTLA-4, 20 μg CpG (4 times every 72 hours, both i.p.) and inosine (daily, 300 mg/KG/BW, through gavage). (i) Pictures of tumors are shown at day 20. scale bars: 1 cm. (j) Tumor weight and quantification of IFN-γ^+ in (k) CD8^+ or (l) CD4^+ cells in the tumor are shown. Data are mean±SEM and pooled from two individual experiments (a-l) 10-11 mice/group. *, P<0.05; **, P<0.01; ***, P<0.001.
To evaluate the effect of inosine on Th1 activation, mice received 30 μg CpG, […] EndoFit Ovalbumin (both Invivogen) and 2 μg OVA323-339 (Sigma) i.p. and 24 hours later mice received 300 mg/kg/BW inosine or PBS as a control through i.p. injection. T cell differentiation was assessed 48 hours later. To assess the impact of inosine on tumor development during ICB therapy 1×10^6 cancer cells were injected subcutaneously (s.c.) in the flank of germ-free mice. […]

In test [2] the test system is MC38 tumor cells. Description: MC38 tumor cell viability in vitro. The format is cell-based. Conditions: direct exposure in vitro, 72 hours. As for the experimental part: as §1

On to `OC[C@H]1O[C@@H](n2cnc3c(O)ncnc32)[C@H](O)[C@@H]1O` [inosine], for which, in the test on MC38-OVA cells, the “T cell-mediated killing of tumor cells” value is given as “did not promote or inhibit T cell-mediated killing of tumor cells”. Moreover, in the test on MC38, the “intra-tumoral IFN-γ+CD8+ and IFN-γ+CD4+ T cells” value is reported as “increased”; the tumor size result is “reduced tumor size”. Also, the “anti-tumor effects of anti-CTLA-4” value with MC38 (inosine 300 mg/KG/BW daily orally) is given as “able to promote the anti-tumor effects of anti-CTLA-4”. In the test on MC38 tumor cells [1], the “IFN-γ production within tumors” value is recorded as “WT but not A2AR-deficient T cells displayed increased IFN-γ production within tumors” and the tumor weights result was “only GF mice receiving WT T cells showed reduced tumor weights”. Further, the anti-CTLA-4/CpG-mediated anti-tumor immunity entry in the test with MC38 tumor cells [1] (inosine oral) is listed as “enhanced anti-CTLA-4/CpG-mediated anti-tumor immunity in animals that received WT but not A2AR-deficient T cells”. The tumor cell viability result with MC38 tumor cells [2] was “did not exert any effects on tumor cell viability”. Further, the tumor cell viability result in the test with MC38 tumor cells [2] (listed as Inosine) is “does not directly impact tumor cell viability”.
